Data on 25 compounds can be found in patent US6358942B1, “Phenyloxazolidinones having a c-c bond 4-8 membered heterocyclic rings” (Pharmacia & Upjohn Company, priority 1995, dated 2002).

The first assay has as its system Staphylococcus aureus or Streptococcus species. Put plainly: Murine Assay: in vivo antimicrobial activity, survival of mice infected intraperitoneally with bacteria.
Conditions: not given
Here is the method: Antimicrobial activity was tested in vivo using the Murine Assay procedure. Groups of female mice (six mice of 18-20 grams each) were injected intraperitoneally with bacteria which were thawed just prior to use and suspended in brain heart infusion with 4% brewers yeast (Staphylococcus aureus) or brain heart infusion (Streptococcus species). Antibiotic treatment at six dose levels per drug was administered one hour and five hours after infection by either oral intubation or subcutaneous routes. Survival was observed daily for six days. ED50 values based on mortality ratios were calculated using probit analysis. The subject compounds are compared against well-known antimicrobials vancomycin and U-100592 as controls. See “Upjohn Oxazolidinone Antibacterial Agent”, posters presented at the 35th Interscience Conference on Antimicrobial Agents and Chemotherapy.
In general, ED50 refers to the dose that gives a 50% effect, or the effect in half of the subjects. Regarding `COC(=O)N1CC=C(c2ccc(N3C[C@H](CNC(C)=O)OC3=O)cc2F)CC1` [Example 57, (S)-(−)-4-[4-[5-[(Acetylamino)methyl]-2-oxo-3-oxazolidinyl]-2-fluorophenyl]-3,6-dihydro-1(2H)-pyridinecarboxylic acid methyl ester], the ED50 was 6.2 mg/kg.

The same assay, now with this note: Table 1; female mice; treatment 1 h and 5 h after infection, oral intubation or subcutaneous; survival over six days; probit analysis of mortality ratios.
Take `CC(=O)NC[C@H]1CN(c2ccc(C3=CCOCC3)c(F)c2)C(=O)O1` [Example 47, (S)-(−)-N-[[3-[4-(3,6-Dihydro-2H-pyran-4-yl)-3-fluoropheny]-2-oxo-5-oxazolidinyl]methyl]acetamide]: the “ED50” value came out at 7.10 mg/kg.
On the same count and under the same terms, under `CC(=O)NC[C@H]1CN(c2ccc(C3(C)CN(C(C)=O)C3)c(F)c2)C(=O)O1` [Example 10, (S)-N-[[3-[3-Fluoro-4-[1-acetyl-3-(3-methyl)-azetidinyl]-phenyl]-2-oxo-5-oxazolidinyl]methyl]-acetamide] stands 20.00 mg/kg; under `CC(=O)NC[C@H]1CN(c2ccc(C3(C)CN(C(=O)CO)C3)c(F)c2)C(=O)O1` [Example 16, (S)-N-[[3-[3-Fluoro-4-[1-(hydroxyacetyl)-3-(3-methyl)azetidinyl]-phenyl]-2-oxo-5-oxazolidinyl]methyl]-acetamide], 17.00 mg/kg.
The same measure, in the same setting: then `CC(=O)NC[C@H]1CN(c2ccc(C3(C)CN(c4ncc([N+](=O)[O-])s4)C3)c(F)c2)C(=O)O1` [Example 13, (S)-N-[[3-[3-Fluoro-4-[1-(5-nitro-2-thiazolyl)-3-(3-methyl) -azetidinyl]-phenyl]-2-oxo-5-oxazolidinyl]methyl]-acetamide], with greater than 10.00 mg/kg.
Still for that read-out and setting: under `CC(=O)NC[C@H]1CN(c2ccc(C3(C)CN(C=O)C3)c(F)c2)C(=O)O1` [Example 5, (S)-N-[[3-[3-Fluoro-4-[1-(formyl)-3-(3-methyl)-azetidinyl]-phenyl]-2-oxo-5-oxazolidinyl]methyl]-acetamide] stands 3.60 mg/kg.

Staying with this assay, now noted: Table 1; female mice; treatment 1 h and 5 h after infection, oral intubation or subcutaneous; survival over six days; probit analysis of mortality ratios; read-out: ED50.
For the compound `O=C(NC[C@H]1CN(c2ccc(C3CCN(C(=O)CO)CC3)c(F)c2)C(=O)O1)C(Cl)Cl` [Example 33, (S)-(−)-2,2-Dichloro-N-[[2-oxo-3-[3-fluoro-4-[1-(hydroxyacetyl)-4-piperidinyl]phenyl]-5-oxazolidinyl]methyl]acetamide], the median effective dose (ED50) was determined as 10.6 mg/kg.
On to `CC(=O)NC[C@H]1CN(c2ccc(C3CCN(C=O)CC3)c(F)c2)C(=O)O1` [Example 29, (S)-(−)-N-[[3-[4-[1-(Formyl)-4-piperidinyl]-3-fluorophenyl]-2-oxo-5-oxazolidinyl]methyl]acetamide], for which the ED50 is 5 mg/kg.
As for `CC(=O)NC[C@H]1CN(c2cc(F)c(C3CCN(C(=O)CO)CC3)c(F)c2)C(=O)O1` [Example 37, (S)-(−)-N-[[3-[4-[1-(Hydroxyacetyl)-4-piperidinyl]-3,5-difluorophenyl]-2-oxo-5-oxazolidinyl]methyl]acetamide], the ED50 stood at 8.7 mg/kg.
On the same count and under the same terms, then `CC(=O)NC[C@H]1CN(c2ccc(C3CCN(C(=O)CO)CC3)cc2)C(=O)O1` [Example 19, (S)-(−)-N-[[3-[4-[1-(Hydroxyacetyl)-4-piperidinyl]phenyl]-2-oxo-5-oxazolidinyl]methyl]acetamide], with 6.8 mg/kg.

The assay is the same for the next values; noted with them: Table 2; female mice; treatment 1 h and 5 h after infection, oral intubation or subcutaneous; survival over six days; probit analysis of mortality ratios.
Consider `CC(=O)NC[C@H]1CN(c2ccc(C3=CCN(C=O)CC3)c(F)c2)C(=O)O1` [Example 56], for which the “ED50” value came out at 4.40 mg/kg.
Still for that read-out and setting: then `CC(=O)NC[C@H]1CN(c2ccc(C3CCOCC3)c(F)c2)C(=O)O1` [Example 48, (S)-(−)-N-[[3-[4-[Tetrahydro-2H-pyran-4-yl]-3-fluoropheny]-2-oxo-5-oxazolidinyl]methyl]acetamide], with 17.50 mg/kg; and `CC(=O)NC[C@H]1CN(c2ccc(C3=CCS(=O)(=O)CC3)c(F)c2)C(=O)O1` [Example 50, (S)-(−)-N-[[3-[4-(3,6-Dihydro-2H-thiopyran-4-yl)-3-fluoropheny]-2-oxo-5-oxazolidinyl]methyl]acetamide S,S-dioxide], with 2.20 mg/kg.
Still for that read-out and setting: under `COC(=O)N1CCC(c2ccc(N3C[C@H](CNC(C)=O)OC3=O)cc2F)C1` (stereo partly drawn) [Example 46, (5S)-3-[4-[5-[(Acetylamino)methyl]-2-oxo-3-oxazolidinyl]-2-fluoropheny]-1-pyrrolidinecarboxylic acid methyl ester] stands 7.90 mg/kg; under `CC(=O)NC[C@H]1CN(c2ccc(C3=CCS(=O)(=O)CC3)cc2)C(=O)O1` [Example 55, (S)-(−)-N-[[3-[4-(3,6-Dihydro-2H-thiopyran-4-yl)phenyl]-2-oxo-5-oxazolidinyl]methyl]acetamide S,S-dioxide], 2.30 mg/kg.
For the compound `CC(=O)NC[C@H]1CN(c2ccc(C3=CCSCC3)c(F)c2)C(=O)O1` [Example 49, (S)-(−)-N-[[3-[4-(3,6-Dihydro-2H-thiopyran-4-yl)-3-fluoropheny]-2-oxo-5-oxazolidinyl]methyl]acetamide], the “ED50” value worked out at 2.40 mg/kg.
Consider “(S)-(−)-N-[[3-[3-Fluoro-4-(dihydrothien-3-yl)-phenyl]-2-oxo-5-oxazolidinyl]methyl]acetamide [Example 67]”, for which the 50% effective dose (ED50) was found to be 13.3 mg/kg.

The same assay, now with this note: Table 2; female mice; treatment 1 h and 5 h after infection, oral intubation or subcutaneous; survival over six days; probit analysis of mortality ratios; read-out: ED50.
As to `CC(=O)NC[C@H]1CN(c2ccc(C3(F)CCN(C=O)CC3)c(F)c2)C(=O)O1` [Example 74, (S)-(−)-N-[[3-[4-[1-Formyl-4-fluoro-4-piperidinyl]-3-fluorophenyl]-2-oxo-5-oxazolidinyl]methyl]acetamide], the ED50 was 10.3 mg/kg.
On the same count and under the same terms, then `CC(=O)NC[C@H]1CN(c2ccc(C3=CCN(C(=O)CO)CCC3)c(F)c2)C(=O)O1` [Example 76, (S)-(−)-N-[[3-[4-[1-(Hydroxyacetyl)-2,3,4,7-tetrahydro-1H-azepin-5-yl]-3-fluorophenyl]-2-oxo-5-oxazolidinyl]methyl]acetamide], with greater than 20 mg/kg; and `CC(=O)NC[C@H]1CN(c2ccc(C3=CC[S+]([O-])C3)c(F)c2)C(=O)O1` (stereo partly drawn) [68(a), (5S)-N-[[3-[3-Fluoro-4-(2,5-dihydro-1-oxido-3-thienyl)-phenyl]-2-oxo-5-oxazolidinyl]methyl]acetamide], with 3.5 mg/kg; and `CC(=O)NC[C@H]1CN(c2ccc(C3=CCOCC3)cc2)C(=O)O1` [Example 52, (S)-(−)-N-[[3-[4-(3,6-Dihydro-2H-pyran-4-yl)phenyl]-2-oxo-5-oxazolidinyl]methyl]acetamide], with 4 mg/kg.
Still for that read-out and setting: under `CC(=O)NC[C@H]1CN(c2ccc(C3=CCN(C(=O)COC(C)=O)CC3)cc2)C(=O)O1` [Example 59, (S)-(−)-N-[[2-Oxo-3-[4-[1-[(acetoxy)acetyl]-3,6-dihydro-2H-pyridin-4-yl]phenyl]-5-oxazolidinyl]methyl]acetamide] stands 4.2 mg/kg; under `CC(=O)NC[C@H]1CN(c2ccc(C3CN(C=O)C3)c(F)c2)C(=O)O1` [Example 84, (S)-N-[[3-[3-Fluoro-4-[1-(formyl)-3-azetidinyl]phenyl]-2-oxo-5-oxazolidinyl]methyl]acetamide], 6.5 mg/kg; under `CC(=O)NC[C@H]1CN(c2ccc(C3=CCSCC3)cc2)C(=O)O1` [Example 54, (S)-(−)-N-[[3-[4-(3,6-Dihydro-2H-thiopyran-4-yl)phenyl]-2-oxo-5-oxazolidinyl]methyl]acetamide], 6.6 mg/kg.
`CC(=O)NC[C@H]1CN(c2ccc(C3=CCCN(C(=O)CO)CC3)c(F)c2)C(=O)O1` [Example 78, (S)-(−)-N-[[3-[4-[1-(Hydroxyacetyl)-2,3,6,7-tetrahydro-1H-azepin-4-yl]-3-fluorophenyl]-2-oxo-5-oxazolidinyl]methyl]acetamide]: the ED50 came to 6 mg/kg.
